The text below walks through data of ChEMBL document CHEMBL3992551, “Synthesis and evaluation of N-(benzofuran-5-yl)aromaticsulfonamide derivatives as novel HIF-1 inhibitors that possess anti-angiogenic potential” (Bioorg Med Chem, 2017).

Data set [1] addresses T1, Hypoxia-inducible factor 1-alpha (Homo sapiens, UniProt Q16665). In words: Inhibition of HIF-1alpha (unknown origin) transcriptional activity expressed in human MCF7 cells after 24 hrs under hypoxic condition by HRE luciferase reporter gene assay. The format is cell-based.
Target sequence in this assay (Q16665 whole entry): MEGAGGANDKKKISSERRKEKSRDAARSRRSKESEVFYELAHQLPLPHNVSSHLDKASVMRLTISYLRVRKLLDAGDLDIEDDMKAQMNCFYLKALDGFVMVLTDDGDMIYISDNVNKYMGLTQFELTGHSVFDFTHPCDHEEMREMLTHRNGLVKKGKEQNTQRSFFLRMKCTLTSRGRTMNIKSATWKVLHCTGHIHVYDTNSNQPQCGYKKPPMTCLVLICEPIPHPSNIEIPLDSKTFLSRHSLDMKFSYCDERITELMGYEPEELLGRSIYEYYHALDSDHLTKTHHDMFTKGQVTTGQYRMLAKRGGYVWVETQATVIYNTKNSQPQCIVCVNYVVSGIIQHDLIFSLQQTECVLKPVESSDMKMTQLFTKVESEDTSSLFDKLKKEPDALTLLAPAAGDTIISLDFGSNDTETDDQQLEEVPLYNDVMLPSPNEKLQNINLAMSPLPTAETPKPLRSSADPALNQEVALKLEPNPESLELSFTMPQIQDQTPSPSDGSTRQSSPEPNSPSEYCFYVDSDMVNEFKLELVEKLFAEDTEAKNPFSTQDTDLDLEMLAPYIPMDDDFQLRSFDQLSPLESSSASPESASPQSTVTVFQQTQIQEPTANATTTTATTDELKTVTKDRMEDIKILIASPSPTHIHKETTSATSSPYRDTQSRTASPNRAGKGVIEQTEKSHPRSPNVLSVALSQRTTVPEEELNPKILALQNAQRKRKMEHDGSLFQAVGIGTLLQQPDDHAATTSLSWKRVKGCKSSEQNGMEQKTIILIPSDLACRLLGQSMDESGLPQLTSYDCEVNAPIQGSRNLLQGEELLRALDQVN
The next data set has as its system MDA-MB-468. In words: Antiproliferative activity against human MDA-MB-468 cells after 72 hrs under hypoxic condition by MTT assay. To be noted: MDA-MB-468, 72 h. It is filed as functional, cell-based.
A further data set concerns MDA-MB-231. In words: Antiproliferative activity against human MDA-MB-231 cells after 72 hrs under hypoxic condition by MTT assay. The format is functional, cell-based. Conditions: MDA-MB-231, 72 h. In general terms: Formazan colour is commonly taken as a measure of viable cells.
The test system of data set [2] is MCF7. In words: Cytotoxicity against human MCF7 cells harboring HRE-driven luciferase gene. It is filed as cell-based.
Data set [3] has as its system MCF7. In words: Antiproliferative activity against human MCF7 cells after 72 hrs under hypoxic condition by MTT assay. The format is functional, cell-based. Conditions: MCF7, 72 h.
The test system of data set [4] is HUVEC. In words: Anti-angiogenic activity against HUVEC assessed as inhibition of hypoxia-induced tube formation after 24 hrs by 2-dimensional matrigel assay. It is filed as functional, cell-based. To be noted: Homo sapiens.
In data set [5] the test system is MCF7. In words: Downregulation of HIF-1alpha protein expression level in human MCF7 cells after 24 hrs under hypoxic condition by Western blot method. The format is functional, cell-based. For orientation: In western blotting, separated proteins are transferred to a membrane and probed.
The test system of data set [6] is HUVEC. In words: Cytotoxicity against HUVEC assessed as reduction in cell viability at 2.5 to 50 uM after 24 hrs by MTT assay. It is filed as cell-based. To be noted: human.
For a further data set, the system named is Chorioallantoic membrane. In words: Antiangiogenic activity in chicken chorioallantoic membrane assessed as inhibition of hypoxia-induced vessel formation after 3 days. The format is functional. Conditions: Gallus gallus.
Data set [7] concerns MCF7. In words: Downregulation of HIF-1alpha mRNA expression level in human MCF7 cells after 24 hrs under hypoxic condition by RT-PCR method. The format is functional, cell-based.
Data set [8] concerns the target T1, Hypoxia-inducible factor 1-alpha. In words: Inhibition of HIF-1alpha transcriptional activity in human MCF7 cells assessed as reduction in VEGF mRNA level after 24 hrs under hypoxic condition by RT-PCR method. It is filed as cell-based.
Target sequence in this assay (Q16665 whole entry, looked up): as the sequence (Q16665 whole entry) above
Data set [9] relates to HUVEC. In words: Anti-migratory activity against HUVEC assessed as inhibition of hypoxia-induced cell movement after 24 hrs by wound healing assay. It is filed as functional, cell-based. Conditions: Homo sapiens.
The target in data set [10] is T1, Hypoxia-inducible factor 1-alpha. In words: Inhibition of HIF-1alpha transcriptional activity in human MCF7 cells assessed as reduction in VEGF secretion after 24 hrs under hypoxic condition by ELISA. The format is cell-based. For orientation: In an ELISA, binding on a coated surface is turned into a signal by an enzyme label.

The term IC50 denotes the point on the concentration scale where inhibition reaches its midpoint.

Each structure is given as a SMILES string.

For the compound `CCOC(=O)c1oc2ccc(NS(=O)(=O)c3ccc(Cl)cc3)cc2c1C`, the IC50 in data set [1] was found to be 50 µM; in the data set with MDA-MB-468 it was 44 µM; with MDA-MB-231, 53.9 µM; in the data set on MCF7 [3], 81.2 µM. The Activity result with MCF7 [2] is “Non-Toxic”.
For `CCOC(=O)c1oc2ccc(NS(=O)(=O)c3cccnc3)cc2c1C` the same measures were 34.1 µM, 62.9 µM, 141 µM, above 200 µM and “Non-Toxic”.
For `CCOC(=O)c1oc2ccc(NS(=O)(=O)c3ccccc3C)cc2c1C` the same measures were 19.4 µM, 53.4 µM, 89.2 µM, 105 µM and “Non-Toxic”.
In the case of `CCOC(=O)c1oc2ccc(NS(=O)(=O)c3ccccc3C(F)(F)F)cc2c1C`, the concentration for half-maximal inhibition (IC50) in [1] is 16.5 µM; in the data set with MDA-MB-468, 74.9 µM; in the data set with MDA-MB-231, 82.4 µM; with MCF7 [3], 93.9 µM. Besides, the Activity entry in the data set on MCF7 [2] is given as “Non-Toxic”.
For `CCOC(=O)c1oc2ccc(NS(=O)(=O)c3cccc(C(F)(F)F)c3)cc2c1C` the same measures were 36.3 µM, 28.9 µM, 30.2 µM, 51.4 µM and “Non-Toxic”.
Consider `CCOC(=O)c1oc2ccc(NS(=O)(=O)c3cc(OC)ccc3OC)cc2c1C`, for which the IC50 in [1] amounted to 15.5 µM; in the data set on MDA-MB-468 it was 20.7 µM; in the data set with MDA-MB-231, 26.7 µM; with MCF7 [3], 52.3 µM. The Activity result with MCF7 [2] was “Non-Toxic”.
Turning to `CCOC(=O)c1oc2ccc(NS(=O)(=O)c3cccc(Br)c3)cc2c1C`, the IC50 in [1] amounted to 25.6 µM; in the data set on MDA-MB-468, 30.7 µM; with MDA-MB-231 it was 33.7 µM; in the data set on MCF7 [3], 57 µM. The Activity entry with MCF7 [2] was “Non-Toxic”.
As for `CCOC(=O)c1oc2ccc(NS(=O)(=O)c3ccc(C(C)(C)C)cc3)cc2c1C`, the IC50 came to 27.1 µM in [1], 8.1 µM with MDA-MB-468, 22.4 µM in the data set with MDA-MB-231 and 22.1 µM with MCF7 [3]. Also, the Activity entry in the data set on MCF7 [2] is “Non-Toxic”.
For `CCOC(=O)c1oc2ccc(NS(=O)(=O)c3ccc(Br)cc3)cc2c1C` the same measures were 29.9 µM, 26.4 µM, 31.1 µM, 56.5 µM and “Non-Toxic”.
For `CCOC(=O)c1oc2ccc(NS(=O)(=O)c3ccccc3Br)cc2c1C` the same measures were 19.9 µM, 138 µM, 179 µM, 185 µM and “Non-Toxic”.
For `CCOC(=O)c1oc2ccc(NS(=O)(=O)c3cccc([N+](=O)[O-])c3)cc2c1C` the same measures were 29.4 µM, 30.1 µM, 59.9 µM, 74.8 µM and “Non-Toxic”.
Consider `CCOC(=O)c1oc2ccc(NS(=O)(=O)c3ccc(C(F)(F)F)cc3)cc2c1C`, for which the IC50 in data set [1] was determined as 41.7 µM; in the data set on MDA-MB-468 it was 27.2 µM; with MDA-MB-231 it was 24.3 µM; with MCF7 [3], 48.7 µM. For the same compound, in the data set on MCF7 [2], the Activity entry is reported as “Non-Toxic”.
With `CCOC(=O)c1oc2ccc(NS(=O)(=O)c3cccc(C)c3)cc2c1C`, the IC50 in data set [1] came out at 32.7 µM; with MDA-MB-468 it was 25.3 µM; in the data set with MDA-MB-231, 29.5 µM; in the data set with MCF7 [3], 101 µM. The Activity entry in the data set on MCF7 [2] is on record as “Non-Toxic”.
For `CCOC(=O)c1oc2ccc(NS(=O)(=O)c3cccs3)cc2c1C` the same measures were 45.4 µM, 34.3 µM, 44.1 µM, 92.3 µM and “Non-Toxic”.
For `CCOC(=O)c1oc2ccc(NS(=O)(=O)c3ccc(C)cc3)cc2c1C` the same measures were 45.4 µM, 24 µM, 25.2 µM, 53.9 µM and “Non-Toxic”.
`CCOC(=O)c1oc2ccc(NS(=O)(=O)c3ccc([N+](=O)[O-])cc3)cc2c1C`: the IC50 in [1] was 36.2 µM; in the data set on MDA-MB-468 it was 24 µM; with MDA-MB-231 it was 33.1 µM; with MCF7 [3], 69.6 µM. Further, the Activity entry with MCF7 [2] was “Non-Toxic”.
For `CCOC(=O)c1oc2ccc(NS(=O)(=O)c3ccccc3Cl)cc2c1C` the same measures were 20.8 µM, 137 µM, above 200 µM, above 200 µM and “Non-Toxic”.
For `CCOC(=O)c1oc2ccc(NS(=O)(=O)c3ccc(OC)c(OC)c3)cc2c1C`, the IC50 was found to be 12.5 µM in data set [1]; 20.5 µM with MDA-MB-468; 35.4 µM in the data set on MDA-MB-231; 52 µM with MCF7 [3]; 18.8 µM in data set [10]. The inhibition entry (in the data set with HUVEC [4]; with Chorioallantoic membrane; in data set [8]; with HUVEC [9]; in [10]) was “Dose-dependent effect” each time. Also, the Activity result was “Dose-dependent effect” with MCF7 [5], “Non-Toxic” in the data set on HUVEC [6], “Dose-dependent effect” with MCF7 [7] and “Non-Toxic” in the data set on MCF7 [2].
With `CCOC(=O)c1oc2ccc(NS(=O)(=O)c3ccc4ccccc4c3)cc2c1C`, the IC50 in data set [1] stood at 22.6 µM; in the data set with MDA-MB-468, 15.7 µM; with MDA-MB-231, 21.6 µM; in the data set with MCF7 [3] it was 20.8 µM. In addition, the Activity entry with MCF7 [2] is “Non-Toxic”.
For `CCOC(=O)c1oc2ccc(NS(=O)(=O)c3ccccc3[N+](=O)[O-])cc2c1C` the same measures were 24.4 µM, 96.9 µM, 80.4 µM, 157 µM and “Non-Toxic”.
Regarding `CCOC(=O)c1oc2ccc(NS(=O)(=O)c3cccc(Cl)c3)cc2c1C`, the half-maximal inhibitory concentration (IC50) in data set [1] was found to be 36.6 µM; in the data set on MDA-MB-468 it was 53.7 µM; in the data set on MDA-MB-231, 57.3 µM; in the data set on MCF7 [3], 83.9 µM. In addition, the Activity result with MCF7 [2] was “Non-Toxic”.
